Here are results for 57 sequences from the OligoGym collection.

After the bases stand the sugars from the 5' end (letter, count) and the backbone: PS all phosphorothioate, else s phosphorothioate and o phosphodiester by linkage. Methylation of C is not given here. e = 2'-O-(2-methoxyethyl) (MOE); k = constrained ethyl (cEt); d = 2'-deoxy (DNA); m = 2'-O-methyl

The data set concerns the target HSD17B13. To be noted: ASO, HepaRG.

As for “TATGUAATAGCCAGTA (sugars k3 d1 m1 d8 k3, PS)”, the target mRNA inhibition (1 µM) amounted to 43%.

TGATGTAGTGGGAGTC (sugars k3 d10 k3, PS) yielded a target mRNA inhibition (1 µM) of 65%.

For the setting “1 µM”, “TTATAACTACAAGAGG (sugars k3 d1 m1 d8 k3, PS)” displayed a target mRNA inhibition of 58%.

Under “1 µM”, GAAGATTAGTTAACCT (sugars k3 d10 k3, PS) had a target mRNA inhibition of 13%.

As for “TATAGACTGGGTAGGA (sugars k3 d1 m1 d8 k3, PS)”, the target mRNA inhibition (1 µM) stood at 30%.

CTGATTTAGAGAGCGA (sugars k3 d10 k3, PS) displayed a target mRNA inhibition (1 µM) of 61%.

On to AAGTTTTTAAGAGGCA (sugars k3 d10 k3, PS), for which the target mRNA inhibition is 0% (0.02 µM); 0% (0.078 µM); 43% (0.313 µM); 77% (1 µM); 73% (1.25 µM); 96% (5 µM).

For ATAGGACATGGAGACA (sugars k3 d10 k3, PS), the target mRNA inhibition (0.02 µM) came out at 14%; the target mRNA inhibition (0.078 µM) amounted to 18%; the target mRNA inhibition (0.313 µM) was found to be 48%; the target mRNA inhibition (1 µM) amounted to 82%; the target mRNA inhibition (1.25 µM) was 74%; the target mRNA inhibition (5 µM) worked out at 79%.

CCATAAAGCTGGATTG (sugars k3 d10 k3, PS) came in with a target mRNA inhibition (1 µM) of 40%.

For the sequence CAGAAATTCACCTTGA (sugars k3 d10 k3, PS), the target mRNA inhibition (1 µM) stood at 28%.

Sequence TAAGCAGAATTGTGAA (sugars k3 d10 k3, PS) yielded a target mRNA inhibition (1 µM) of 35%.

Regarding AGAGAGCGATAGATCT (sugars k3 d10 k3, PS), the target mRNA inhibition (1 µM) stood at 15%.

Where the note is “1 µM”, CATTAAGCTTAGTATA (sugars k3 d10 k3, PS) had a target mRNA inhibition of 19%.

With “TGTGUTCTTGTTGATA (sugars k3 d1 m1 d8 k3, PS)”, the target mRNA inhibition (1 µM) was found to be 41%.

Under “1 µM”, “TGCAUCTTAAGATACC (sugars k3 d1 m1 d8 k3, PS)” yielded a target mRNA inhibition of 51%.

In the case of CGTTTTGGGCTAATGA (sugars k3 d10 k3, PS), the target mRNA inhibition (1 µM) came out at 48%.

The sequence AAACATAGGCTTAGTG (sugars k3 d10 k3, PS) registered a target mRNA inhibition (1 µM) of 16%.

Consider GGTAACGGTGATCAAA (sugars k3 d10 k3, PS), for which, under “1 µM”, the target mRNA inhibition turned out to be 51%.

In the case of GTATTTCGCTACTGTA (sugars k3 d10 k3, PS), the target mRNA inhibition is, setting by setting: (0.02 µM) 0%; (0.078 µM) 0%; (0.313 µM) 24%; (1 µM) 76%; (1.25 µM) 64%; (5 µM) 86%.

For ACCAATATGGGATGAG (sugars k3 d10 k3, PS), the target mRNA inhibition (1 µM) worked out at 24%.

Sequence AATACATATCTTACTC (sugars k3 d10 k3, PS) returned a target mRNA inhibition (1 µM) of 37%.

Take CTCTAATGTTTCTTGA (sugars k3 d10 k3, PS): the target mRNA inhibition (1 µM) turned out to be 53%.

In the case of AAGGCTTATGAAGTTA (sugars k3 d10 k3, PS), the target mRNA inhibition (1 µM) is 61%.

TCTCTTAGCTGTGCAC (sugars k3 d10 k3, PS): the target mRNA inhibition came out at 15% (0.02 µM); 30% (0.078 µM); 52% (0.313 µM); 79% (1 µM); 74% (1.25 µM); 89% (5 µM).

In the case of GCTTAGTGTAGAATTG (sugars k3 d10 k3, PS), the target mRNA inhibition (1 µM) was found to be 16%.

ACTTTTAGGGAGGTAG (sugars k3 d10 k3, PS) gave a target mRNA inhibition (1 µM) of 20%.

Turning to TATCATACCACATACC (sugars k3 d10 k3, PS), the target mRNA inhibition (1 µM) came out at 24%.

On to “TAATACATTAGCAAGC (sugars kkdddddddddkekek, PS)”, for which, for the setting “1 µM”, the target mRNA inhibition stood at 34%.

As to CTTGACTAAGGAGCTA (sugars k3 d10 k3, PS), the target mRNA inhibition (1 µM) was 24%.

TCTATTGATTGGCTTA (sugars k3 d10 k3, PS) gave a target mRNA inhibition (1 µM) of 39%.

In turn, “TGTCTAAACATCTCTG (sugars k3 d9 k3 e1, PS)” gave a target mRNA inhibition (1 µM) of 69%.

In the case of GAATAGAGTTGCACCG (sugars k3 d10 k3, PS), the target mRNA inhibition (1 µM) came to 55%.

On to “CTAGUGCCAAACCAAT (sugars k3 d1 m1 d8 k3, PS)”, for which, where the note is “1 µM”, the target mRNA inhibition came to 45%.

As for GTAAATTGAATAGCCA (sugars k3 d10 k3, PS), the target mRNA inhibition (1 µM) was 55%.

TATTCCCAACGCAACA (sugars k3 d10 k3, PS) gave a target mRNA inhibition (1 µM) of 62%.

The sequence TCGGGAAGTTTAGACA (sugars k3 d10 k3, PS) gave a target mRNA inhibition (1 µM) of 43%.

Regarding CATACCCATTCTAACT (sugars k3 d10 k3, PS), where the note is “1 µM”, the target mRNA inhibition is 6%.

Consider GGTTTTGATACCAGTT (sugars k3 d10 k3, PS), for which the target mRNA inhibition (1 µM) came to 58%.

AAAAAAGCTTATCGAG (sugars k3 d10 k3, PS) returned a target mRNA inhibition (1 µM) of 7%.

Sequence ATATAGCCCTTTCCCC (sugars k3 d10 k3, PS) gave a target mRNA inhibition (1 µM) of 26%.

“AAACATCTCTGGGACC (sugars k3 d1 m1 d8 k3, PS)” yielded a target mRNA inhibition (1 µM) of 66%.

TTTTTAAGAGGCATGA (sugars k3 d10 k3, PS) showed a target mRNA inhibition (1 µM) of 60%.

Under “1 µM”, CCAAGGCTTATGAAGT (sugars k3 d10 k3, PS) came in with a target mRNA inhibition of 27%.

GACTACATTAACACCA (sugars k3 d10 k3, PS): the target mRNA inhibition (1 µM) was 58%.

“TGATTGAGTTCTCCAC (sugars k3 d9 k3 e1, PS)” yielded a target mRNA inhibition (1 µM) of 30%.

For GTTTTTTGAACCGTAT (sugars k3 d10 k3, PS), the target mRNA inhibition by setting is: (0.02 µM) 0%; (0.078 µM) 0%; (0.313 µM) 9%; (1 µM) 71%; (1.25 µM) 56%; (5 µM) 74%.

In turn, GTCCAGGTTGAGATAA (sugars k3 d10 k3, PS) displayed a target mRNA inhibition (1 µM) of 60%.

For the sequence “GGGAGGTAGCTTTTGT (sugars k3 d9 k3 e1, PS)”, where the note is “1 µM”, the target mRNA inhibition came to 40%.

In turn, TCAATTTATCATACCA (sugars k3 d10 k3, PS) gave a target mRNA inhibition (1 µM) of 26%.

For CTATTGATTGGCTTAA (sugars k3 d10 k3, PS), the target mRNA inhibition (1 µM) was 31%.

Regarding CTTAGTACCAAGACAC (sugars k3 d10 k3, PS), the target mRNA inhibition (1 µM) turned out to be 60%.

ACTACAAGAGGTTATT (sugars k3 d10 k3, PS): the target mRNA inhibition (1 µM) stood at 46%.

As for AAATGTCCTAGGATGT (sugars k3 d10 k3, PS), the target mRNA inhibition (1 µM) is 36%.

“ACAGTCTTAAACCTTC (sugars k3 d9 k3 e1, PS)”: the target mRNA inhibition is 13% (0.02 µM); 31% (0.078 µM); 52% (0.313 µM); 73% (1 µM); 71% (1.25 µM); 80% (5 µM).

With TCATAAGTAGTCTGCC (sugars k3 d10 k3, PS), for the setting “1 µM”, the target mRNA inhibition is 62%.

For GGGAGTCGGATTATTT (sugars k3 d10 k3, PS), under “1 µM”, the target mRNA inhibition worked out at 33%.

TGATTCGAAACTATTC (sugars k3 d10 k3, PS): for the setting “1 µM”, the target mRNA inhibition was 29%.
